Measured values reported in patent US11801242B2, “Compositions and methods for adjuvant cancer therapeutics” (DUKE UNIVERSITY, priority 2018, dated 2023).

Test system: REV1 CTD-REV7 interaction
Assay: ELISA assay probing the REV1 CTD-REV7 interaction
Type: binding, mouse
Conditions: ratio of test compound IC50 to RE01 IC50
Protocol: The ELISA assay for probing the REV1 CTD-REV7 interaction was carried out by immobilizing 50 nM His8-tagged REV7/3 in 200 μL phosphate-buffered saline (PBS, Gibco) containing 0.2% BSA in a Ni-NTA coated 96-well plate (HisSorb, Qiagen) for 30 minutes. Unbound His8-tagged REV7/3 was removed by washing the wells four times with PBS containing 0.05% Tween-20. […] After incubation for 30 minutes, the wells were washed four times with PBS containing 0.05% Tween-20 to remove the unbound FLAG-tagged POL κ RIR-REV1 CTD. A solution of the anti-FLAG horseradish peroxidase (HRP)-conjugated antibody (Sigma-Aldrich) in PBS containing 0.2% BSA was then added to the wells. After incubating for 1 hour, the antibody was washed off four times with PBS containing 0.05% Tween-20. The 3,3′,5,5′-tetramethylbenzedine (TMB) substrate (SureBlue TMB, Seracare) was added to the wells. After incubation of 20-30 minutes, the reaction was quenched with 1 M HCl. A SpectraMax plate reader (Molecular Devices) was used to measure absorbance at 450 nm.

SMILES	Relative IC50 Ratio
CC(C)CC(=O)c1c(Nc2ccc(Br)cc2Br)[nH]c2c(Cl)ccc([N+](=O)[O-])c2c1=O [RE04, 8-chloro-2-((2,4-dibromophenyl)amino)-3-(3-methylbutanoyl)-5-nitroquinolin-4(1H)-one]	B (B represents a ratio of test compound IC50 so to RE1 IC50 between 0.8 and 1.5)
CC(C)CC(=O)c1c(Nc2ccc(C(=O)O)cc2Cl)[nH]c2c(Cl)ccc([N+](=O)[O-])c2c1=O [RE06, 3-chloro-4-((8-chloro-3-(3-methylbutanoyl)-5-nitro-4-oxo-1,4-dihydroquinolin-2-yl)amino)benzoic acid]	C (C represents a ratio of test compound IC50 to RE01 IC50 between 1.5-10)
CC(C)CC(=O)c1c(Nc2ccc(Cl)cc2Cl)[nH]c2c(C(=O)O)ccc(Cl)c2c1=O [RE08, 5-chloro-2-((2,4-dichlorophenyl)amino)-3-(3-methylbutanoyl)-4-oxo-1,4-dihydroquinoline-8-carboxylic acid]	B (B represents a ratio of test compound IC50 so to RE1 IC50 between 0.8 and 1.5)
CC(C)CC(=O)c1c(Nc2ccc(Cl)cc2Cl)[nH]c2c(Cl)ccc(C(=O)O)c2c1=O [RE09, 8-chloro-2-((2,4-dichlorophenyl)amino)-3-(3-methylbutanoyl)-4-oxo-1,4-dihydroquinoline-5-carboxylic acid]	B (B represents a ratio of test compound IC50 so to RE1 IC50 between 0.8 and 1.5)
CC(C)CC(=O)c1c(Nc2ccc(Cl)cc2Cl)[nH]c2c(C(=O)O)ccc([N+](=O)[O-])c2c1=O [RE10, 2-((2,4-dichlorophenyl)amino)-3-(3-methylbutanoyl)-5-nitro-4-oxo-1,4-dihydroquinoline-8-carboxylic acid]	B (B represents a ratio of test compound IC50 so to RE1 IC50 between 0.8 and 1.5)
CC(C)CC(=O)c1c(Nc2ccc(Cl)cc2Cl)[nH]c2c(Cl)ccc(N)c2c1=O [RE11, 5-amino-8-chloro-2-((2,4-dichlorophenyl)amino)-3-(3-methylbutanoyl)quinolin-4(1H)-one]	C (C represents a ratio of test compound IC50 to RE01 IC50 between 1.5-10)
CC(=O)c1c(Nc2ccc(Cl)cc2Cl)[nH]c2c(Cl)ccc([N+](=O)[O-])c2c1=O [RE12, 3-acetyl-8-chloro-2-((2,4-dichlorophenyl)amino)-5-nitroquinolin-4(1H)-one]	B (B represents a ratio of test compound IC50 so to RE1 IC50 between 0.8 and 1.5)
O=C(O)/C(O)=C/C(=O)c1c(Nc2ccc(Cl)cc2Cl)[nH]c2c(Cl)ccc([N+](=O)[O-])c2c1=O [RE13, (Z)-4-(8-chloro-2-((2,4-dichlorophenyl)amino)-5-nitro-4-oxo-1,4-dihydroquinolin-3-yl)-2-hydroxy-4-oxobut-2-enoic acid]	A (A represents a ratio of test compound IC50 to RE01 IC50 of less than 0.8)
CC(=NO)c1c(Nc2ccc(Cl)cc2Cl)[nH]c2c(Cl)ccc([N+](=O)[O-])c2c1=O [RE14, 8-chloro-2-((2,4-dichlorophenyl)amino)-3-(1-(hydroxyimino)ethyl)-5-nitroquinolin-4(1H)-one]	B (B represents a ratio of test compound IC50 so to RE1 IC50 between 0.8 and 1.5)
CC(O)c1c(Nc2ccc(Cl)cc2Cl)[nH]c2c(Cl)ccc([N+](=O)[O-])c2c1=O (stereo not shown) [RE15, 8-chloro-2-((2,4-dichlorophenyl)amino)-3-(1-hydroxyethyl)-5-nitroquinolin-4(1H)-one]	B (B represents a ratio of test compound IC50 so to RE1 IC50 between 0.8 and 1.5)
CC(C)CC(=O)c1c(Nc2ccccc2)[nH]c2c(Cl)ccc([N+](=O)[O-])c2c1=O [RE16, 8-chloro-3-(3-methylbutanoyl)-5-nitro-2-(phenylamino)quinolin-4(1H)-one]	C (C represents a ratio of test compound IC50 to RE01 IC50 between 1.5-10)
CC(C)CC(=O)c1c(Nc2ccc(I)cc2I)[nH]c2c(Cl)ccc([N+](=O)[O-])c2c1=O [RE17, 8-chloro-2-((2,4-diiodophenyl)amino)-3-(3-methylbutanoyl)-5-nitroquinolin-4(1H)-one]	B (B represents a ratio of test compound IC50 so to RE1 IC50 between 0.8 and 1.5)
CC(C)CC(=O)c1c(Nc2ccc(Cl)cc2C(F)(F)F)[nH]c2c(Cl)ccc([N+](=O)[O-])c2c1=O [RE18, 8-chloro-2-((4-chloro-2-(trifluoromethyl)phenyl)amino)-3-(3-methylbutanoyl)-5-nitroquinolin-4(1H)-one]	A (A represents a ratio of test compound IC50 to RE01 IC50 of less than 0.8)
CC(C)CC(=O)c1c(Nc2ccc3ccccc3c2)[nH]c2c(Cl)ccc([N+](=O)[O-])c2c1=O [RE19, 8-chloro-3-(3-methylbutanoyl)-2-(naphthalen-2-ylamino)-5-nitroquinolin-4(1H)-one]	B (B represents a ratio of test compound IC50 so to RE1 IC50 between 0.8 and 1.5)
CC(C)CC(=O)c1c(Nc2ccc(Cl)cc2)[nH]c2c(Cl)ccc([N+](=O)[O-])c2c1=O [RE20, 8-chloro-2-((4-chlorophenyl)amino)-3-(3-methylbutanoyl)-5-nitroquinolin-4(1H)-one]	C (C represents a ratio of test compound IC50 to RE01 IC50 between 1.5-10)
CC(C)CC(=O)c1c(Nc2ccc(C(C)C)cc2)[nH]c2c(Cl)ccc([N+](=O)[O-])c2c1=O [RE21, 8-chloro-2-((4-isopropylphenyl)amino)-3-(3-methylbutanoyl)-5-nitroquinolin-4(1H)-one]	C (C represents a ratio of test compound IC50 to RE01 IC50 between 1.5-10)
Cc1ccc(Nc2[nH]c3c(Cl)ccc([N+](=O)[O-])c3c(=O)c2C(=O)CC(C)C)c(C)c1 [RE22, 8-chloro-2-((2,4-dimethylphenyl)amino)-3-(3-methylbutanoyl)-5-nitroquinolin-4(1H)-one]	C (C represents a ratio of test compound IC50 to RE01 IC50 between 1.5-10)
CC(C)CC(=O)c1c(Nc2ccccc2Cl)[nH]c2c(Cl)ccc([N+](=O)[O-])c2c1=O [RE23, 8-chloro-2-((2-chlorophenyl)amino)-3-(3-methylbutanoyl)-5-nitroquinolin-4(1H)-one]	B (B represents a ratio of test compound IC50 so to RE1 IC50 between 0.8 and 1.5)
CC(C)CC(=O)c1c(Nc2ccc(F)cc2F)[nH]c2c(Cl)ccc([N+](=O)[O-])c2c1=O [RE24, 8-chloro-2-((2,4-difluorophenyl)amino)-3-(3-methylbutanoyl)-5-nitroquinolin-4(1H)-one]	C (C represents a ratio of test compound IC50 to RE01 IC50 between 1.5-10)
CC(C)CC(=O)c1c(Nc2ccc(Cl)cc2Cl)[nH]c2c(Cl)cccc2c1=O [RE25, 8-chloro-2-((2,4-dichlorophenyl)amino)-3-(3-methylbutanoyl)quinolin-4(1H)-one]	C (C represents a ratio of test compound IC50 to RE01 IC50 between 1.5-10)
CC(C)CC(=O)c1c(Nc2ccc(Cl)cc2Cl)[nH]c2c(Cl)ccc(C(F)(F)F)c2c1=O [RE26, 8-chloro-2-((2,4-dichlorophenyl)amino)-3-(3-methylbutanoyl)-5-(trifluoromethyl)quinolin-4(1H)-one]	C (C represents a ratio of test compound IC50 to RE01 IC50 between 1.5-10)
Cc1ccc(Cl)c2[nH]c(Nc3ccc(Cl)cc3Cl)c(C(=O)CC(C)C)c(=O)c12 [RE27, 8-chloro-2-((2,4-dichlorophenyl)amino)-5-methyl-3-(3-methylbutanoyl)quinolin-4(1H)-one]	C (C represents a ratio of test compound IC50 to RE01 IC50 between 1.5-10)
